{"source": "patent US20110178064A1", "about": "“SPIRO CONDENSED […] DERIVATIVES FOR USE AS ANTIBACTERIAL” (A[…]&D, priority 2007, published 2011)"}
{"molecular_target": "Escherichia coli DNA gyrase A/B tetramer (Escherichia coli, UniProt P0AES4+P0AES6)", "sequence (P0AES4 whole entry, one chain of several)": "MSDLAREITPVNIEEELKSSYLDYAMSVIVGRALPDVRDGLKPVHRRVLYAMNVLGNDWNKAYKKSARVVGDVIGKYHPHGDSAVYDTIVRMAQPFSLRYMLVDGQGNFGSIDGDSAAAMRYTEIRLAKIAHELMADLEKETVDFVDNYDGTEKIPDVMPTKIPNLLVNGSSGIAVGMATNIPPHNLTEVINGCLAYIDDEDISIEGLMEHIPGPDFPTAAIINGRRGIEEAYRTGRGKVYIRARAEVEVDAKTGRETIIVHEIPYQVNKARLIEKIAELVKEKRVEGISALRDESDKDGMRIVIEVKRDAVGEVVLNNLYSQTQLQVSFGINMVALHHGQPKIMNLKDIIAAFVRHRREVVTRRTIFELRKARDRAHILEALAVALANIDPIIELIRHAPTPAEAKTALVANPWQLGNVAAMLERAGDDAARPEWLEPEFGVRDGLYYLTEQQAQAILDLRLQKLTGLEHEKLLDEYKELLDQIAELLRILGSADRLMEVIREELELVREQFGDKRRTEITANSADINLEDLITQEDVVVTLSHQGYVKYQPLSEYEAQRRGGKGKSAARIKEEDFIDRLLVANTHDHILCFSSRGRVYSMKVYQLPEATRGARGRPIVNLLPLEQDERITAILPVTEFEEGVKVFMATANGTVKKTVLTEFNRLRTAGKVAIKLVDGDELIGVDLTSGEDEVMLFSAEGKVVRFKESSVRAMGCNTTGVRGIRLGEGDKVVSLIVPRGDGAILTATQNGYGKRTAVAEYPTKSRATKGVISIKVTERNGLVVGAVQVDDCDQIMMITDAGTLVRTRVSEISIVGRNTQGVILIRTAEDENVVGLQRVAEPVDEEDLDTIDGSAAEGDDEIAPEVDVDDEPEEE", "assay": "DNA gyrase supercoiling activity fluorescence polarisation assay", "assay_type": "biochemical", "experimental": "The supercoiling reactions may be quenched by the addition of 10 microliters/well of 40 nM oligodeoxynucleotide probe in 3× triplex-forming buffer consisting of 150 mM NaCl, and 150 mM sodium acetate at pH 3.5. The oligodeoxynucleotide probe may be 5′-BODIPY-FL-labeled […]. After 60 minutes, the fluorescence anisotropy of the BODIPY-FL may be measured in a Tecan Ultra plate reader, using 485 nm excitation and 535 nm emission filters equipped with polarizers. The IC50 may be determined by nonliner regression using two control reactions. The first contains no test compound but 0.8% DMSO (100% activity) while the second control reaction contains 5 uM Ciprofloxacin and 0.8% DMSO (0% activity).", "units": {"IC50": "µM"}}
{"compound": "Cc1noc(C)c1-c1cc2c(cn1)N1C[C@@H](C)O[C@@H](C)[C@@H]1C1(C2)C(=O)NC(=O)NC1=O", "note": "(relative stereo) [Example 64, (6aS,7S,9R)-rel-3-(3,5-Dimethylisoxazol-4-yl)-7,9-dimethyl-6a,7,9,10-tetrahydro-2′H,5H-spiro[1,4-oxazino[4,3-a][1,7]naphthyridine-6,5′-pyrimidine]-2′,4′,6′(1′H,3′H)-trione]", "IC50": "> 83"}
{"compound": "C[C@@H]1CN2c3cnc(-c4ccncc4)cc3CC3(C(=O)NC(=O)NC3=O)[C@H]2[C@H](C)O1", "note": "(relative stereo) [Example 65, (6aS,7S,9R)-rel-7,9-Dimethyl-3-(pyridin-4-yl)-6a,7,9,10-tetrahydro-2′H,5H-spiro[1,4-oxazino[4,3-a][1,7]naphthyridine-6,5′-pyrimidine]-2′,4′,6′(1′H,3′H)-trione]", "IC50": "> 10"}
{"compound": "C[C@@H]1CN2c3cnc(-c4cnn(C)c4)cc3CC3(C(=O)NC(=O)NC3=O)[C@H]2[C@H](C)O1", "note": "(relative stereo) [Example 66, (6aS,7S,9R)-rel-7,9-dimethyl-3-(1-methyl-1H-pyrazol-4-yl)-6a,7,9,10-tetrahydro-2′H,5H-spiro[1,4-oxazino[4,3-a][1,7]naphthyridine-6,5′-pyrimidine]-2′,4′,6′(1′H,3′H)-trione]", "IC50": "> 83"}
{"compound": "C[C@@H]1CN2c3ccc(-c4cc5ccccc5o4)nc3CC3(C(=O)NC(=O)NC3=O)[C@H]2[C@H](C)O1", "note": "(relative stereo) [Example 68, (2R,4S,4aS)-rel-8-(1-Benzofuran-2-yl)-2,4-dimethyl-1,2,4,4a-tetrahydro-2′H,6H-spiro[1,4-oxazino[4,3-a][1,5]naphthyridine-5,5′-pyrimidine]-2′,4′,6′(1′H,3′H)-trione]", "IC50": 8}
{"compound": "C[C@@H]1CN2c3ccc(-c4ccnn4C)nc3CC3(C(=O)NC(=O)NC3=O)[C@H]2[C@H](C)O1", "note": "(relative stereo) [Example 70, (2R,4S,4aS)-rel-2,4-Dimethyl-8-(1-methyl-1H-pyrazol-5-yl)-1,2,4,4a-tetrahydro-2′H,6H-spiro[1,4-oxazino[4,3-a][1,5]naphthyridine-5,5′-pyrimidine]-2′,4′,6′(1′H,3′H)-trione]", "IC50": 3}
{"compound": "COc1ccncc1-c1ccc2c(n1)CC1(C(=O)NC(=O)NC1=O)[C@H]1[C@H](C)O[C@H](C)CN21", "note": "(relative stereo) [Example 71, (2R,4S,4aS)-rel-8-(4-Methoxypyridin-3-yl)-2,4-dimethyl-1,2,4,4a-tetrahydro-2′H,6H-spiro[1,4-oxazino[4,3-a][1,5]naphthyridine-5,5′-pyrimidine]-2′,4′,6′(1′H,3′H)-trione]", "IC50": 16}
{"compound": "C[C@@H]1CN2c3ccc(-c4cncnc4)nc3CC3(C(=O)NC(=O)NC3=O)[C@H]2[C@H](C)O1", "note": "(relative stereo) [Example 73, (2R,4S,4aS)-rel-2,4-Dimethyl-8-(pyrimidin-5-yl)-1,2,4,4a-tetrahydro-2′H,6H-spiro[1,4-oxazino[4,3-a][1,5]naphthyridine-5,5′-pyrimidine]-2′,4′,6′(1′H,3′H)-trione]", "IC50": 3}
{"compound": "C[C@@H]1CN2c3ccc(-c4cccnc4)nc3CC3(C(=O)NC(=O)NC3=O)[C@H]2[C@H](C)O1", "note": "(relative stereo) [Example 74, (2R,4S,4aS)-rel-2,4-Dimethyl-8-(pyridin-3-yl)-1,2,4,4a-tetrahydro-2′H,6H-spiro[1,4-oxazino[4,3-a][1,5]naphthyridine-5,5′-pyrimidine]-2′,4′,6′(1′H,3′H)-trione]", "IC50": 4}
{"compound": "C[C@@H]1CN2c3ccc(-c4cccc5cccnc45)nc3CC3(C(=O)NC(=O)NC3=O)[C@H]2[C@H](C)O1", "note": "(relative stereo) [Example 75, (2R,4S,4aS)-rel-2,4-Dimethyl-8-(quinolin-8-yl)-1,2,4,4a-tetrahydro-2′H,6H-spiro[1,4-oxazino[4,3-a][1,5]naphthyridine-5,5′-pyrimidine]-2′,4′,6′(1′H,3′H)-trione]", "IC50": 8}
